Assay results: US9457099B2, “Polyethylene glycol-based dendrons” (RUTGERS, THE STATE UNIVERSITY OF NEW JERSEY, priority 2010, dated 2016)

Columns and labels:
[1] = system: J774.E murine macrophage cells; assay: Quantitative macrophage uptake of dendrons (5-FAM fluorescence of cell lysate), with mannan inhibition; format: cell-based
Procedure: (§1) J774.E murine macrophage cells were grown as attached cells in a CO2 water-jacketed incubator (Form a Scientific Inc., Marietta, Ohio) with a humidified 5% CO2 atmosphere at 37° C. The cells were maintained in RPMI-1640 (GIBCO) containing 10% fetal bovine serum (FBS), 100 U/mL penicillin, and 100 μg/mL streptomycin/mL. The cells were seeded two days before experiment to 24-well plates at 0.5×10^5 cells/well for quantitative uptake measurement or to chambered coverglass (LAB-TEK II) at 1×10^5 cell/chamber for confocal microscopy. Cells were incubated with G3.0-Mannose (40 nM) in HBSS at 37° C. for 1 hr. For confocal microscopy, the incubation included the additional 0.16 mg/mL of the general endocytosis marker rhodamine B-labeled dextran (10,000 MW) and the nuclear dye DAPI. For Mannan inhibition studies, cells were pre-incubated with mannan (10 mg/mL) for 1 hr, followed by incubation with G3.0-Mannose, with or without rhodamine B-dextran/DAPI plus 10 mg/mL of mannan. After incubation, the unbound molecules were washed thrice using cold DPBS buffer. PEGtide dendron G3.0 (40 nM) (without mannose) was used as a negative control of mannose receptor-mediated cellular uptake.
(§2) In quantitative uptake experiments, the washed cells were lysed in wells overnight with 150 μL of 1 N NaOH solution and neutralized the next day with 150 μL of 1 N HCl solution, resulting in 300 μL of cell lysate/well. 250 μL of cell lysate was transferred to a well of a 96-well plate for 5-FAM fluorescence measurement on Tecan GENIOS fluorescent plate reader (Phenix Research Products, Hayward, Calif.). The total cell-associated fluorescence reading was converted into total cell-associated dendron amount using a separately established dendron's fluorescence standard curve. A small fraction of the lysate (about 50 μL, depending on cell density plated) was used to determine total cellular protein/well by Bradford Protein Assay. The total cellular protein/well was used to normalize the dendron amount/well to correct well-to-well variation in cell mass.

[2] = Dynamic light scattering (DLS) analysis of dendrons; format: physicochemical; details: sample concentration 1 mg/mL, 4° C.
Procedure: PEGtides were purified on an Alliance reverse-phase high-performance liquid chromatography (RP-HPLC) system (Waters, Mass.) using a Symmetry C18 column (4.6×150 mm, 100 Å, particle size 5 μm). Following mobile phase was used: solvent A, 0.05% aqueous TFA; and solvent B, acetonitrile containing 0.05% TFA. A linear gradient of 95% to 70% of A was applied for 60 min at a flow rate of 1 mL/min. The UV absorptions were monitored at 220 and 250 nm, whereas fluorescence detector was set with excitation and emission wavelengths of 492 and 518 nm, respectively. The dendrons and there derivatives were quantified on a F-7000 fluorescence spectrophotometer (HITACHI, Japan). Mass spectra were acquired on an ABI-MDS SCIEX 4800 matrix-assisted laser desorption/ionisation-time of flight (MALDI-TOF/TOF) mass spectrometer (AB Sciex, Foster City, Calif.). Sample solutions (2 μL) were mixed with matrix solution (20 μL, 20 mg/mL sinapinic acid in 50% aqueous acetonitrile containing 0.1% TFA). This mixture (1 μL) was spotted onto sample holder and dried under a gentle stream of argon at room temperature. All spectra were recorded in positive mode using a linear acquisition method. The dynamic light scattering (DLS) experiments were performed on a Wyatt Dynapro Titan instrument (Wyatt Technology, Santa Barbara, Calif.) with sample concentration of 1 mg/mL. […]

[3] = Cell viability MTT assay; format: cell-based; details: mouse, J774.E murine macrophage cells; 40 nM in HBSS for 2 hours; mean±standard deviation (n=6); read-out: cell relative viability (MTT)
Procedure: (1) Prepared MTT solution in PBS (pH 7.4) with final concentration of 5 mg/mL.
(2) Cultured J774.E muring macrophage cells with G3.0-Mannose, G3.0 and PAMAM G1.0, with each concentration of 40 nM, in HBSS for 2 hours. 6 replicates were applied. (n=6).
(3) Aspirated off the culture medium and washed with DPBS for three times for each well.
(4) 100 μL of HBSS and 25 μL of MIT solution were added to each well. Placed the plate in incubator at 37° C. overnight.
(5) Aspirated off the HBSS/MTT solution. Added 200 μL of DMSO for dissolving the crystals.
(6) Transferred to plate reader and measure the absorption at 570 nm.

[4] = system: J774.E murine macrophage cells; assay: Confocal microscopy of dendron uptake; format: cell-based; details: 40 nM, 1 hr, with rhodamine B-labeled dextran and DAPI
Procedure: as §1, with “For Mannan inhibition studies, cells were pre-incubated with mannan (10 mg/mL) for 1 hr, followed by incubation with G3.0-Mannose, with or without rhodamine B-dextran/DAPI plus 10 mg/mL of mannan. After incubation, the unbound molecules were washed thrice using cold DPBS buffer. PEGtide dendron G3.0 (40 nM) (without mannose) was used as a negative control of mannose receptor-mediated cellular uptake.” left out
as §2, with “A small fraction of the lysate (about 50 μL, depending on cell density plated) was used to determine total cellular protein/well by Bradford Protein Assay. The total cellular protein/well was used to normalize the dendron amount/well to correct well-to-well variation in cell mass.” left out

SMILES: O=C(O)CCNC(=O)[C@H](CCCCNC(=O)c1ccc2c(c1)C(=O)OC21c2ccc(O)cc2Oc2cc(O)ccc21)NC(=O)CCOCCOCCOCCOCCOCCOCCNC(=O)[C@H](CCCCNC(=O)CCNC(=O)CCOCCOCCOCCOCCOCCOCCNC(=O)[C@H](CCCCNC(=O)CCNC(=O)CCOCCOCCOCCOCCOCCOCCNC(=O)[C@H](CCCCNC(=O)CCNC(=O)CCOCCOCCOCCOCCOCCOCCNC(=S)Nc1ccc(O[C@H]2O[C@H](CO)[C@@H](O)[C@H](O)[C@@H]2O)cc1)NC(=O)CCNC(=O)CCOCCOCCOCCOCCOCCOCCNC(=S)Nc1ccc(O[C@H]2O[C@H](CO)[C@@H](O)[C@H](O)[C@@H]2O)cc1)NC(=O)CCNC(=O)CCOCCOCCOCCOCCOCCOCCNC(=O)[C@H](CCCCNC(=O)CCNC(=O)CCOCCOCCOCCOCCOCCOCCNC(=S)Nc1ccc(O[C@H]2O[C@H](CO)[C@@H](O)[C@H](O)[C@@H]2O)cc1)NC(=O)CCNC(=O)CCOCCOCCOCCOCCOCCOCCNC(=S)Nc1ccc(O[C@H]2O[C@H](CO)[C@@H](O)[C@H](O)[C@@H]2O)cc1)NC(=O)CCNC(=O)CCOCCOCCOCCOCCOCCOCCNC(=O)[C@H](CCCCNC(=O)CCNC(=O)CCOCCOCCOCCOCCOCCOCCNC(=O)[C@H](CCCCNC(=O)CCNC(=O)CCOCCOCCOCCOCCOCCOCCNC(=S)Nc1ccc(O[C@H]2O[C@H](CO)[C@@H](O)[C@H](O)[C@@H]2O)cc1)NC(=O)CCNC(=O)CCOCCOCCOCCOCCOCCOCCNC(=S)Nc1ccc(O[C@H]2O[C@H](CO)[C@@H](O)[C@H](O)[C@@H]2O)cc1)NC(=O)CCNC(=O)CCOCCOCCOCCOCCOCCOCCNC(=O)[C@H](CCCCNC(=O)CCNC(=O)CCOCCOCCOCCOCCOCCOCCNC(=S)Nc1ccc(O[C@H]2O[C@H](CO)[C@@H](O)[C@H](O)[C@@H]2O)cc1)NC(=O)CCNC(=O)CCOCCOCCOCCOCCOCCOCCNC(=S)Nc1ccc(O[C@H]2O[C@H](CO)[C@@H](O)[C@H](O)[C@@H]2O)cc1 [G3.0-Mannose]
- quantitative uptake in macrophage ([1]; 40 nM in HBSS at 37° C. for 1 hr, normalized to total cellular protein): 699.6 ± 1.8 pmol/µg
- specificity for mannose receptor (uptake vs non-mannosylated G3.0) ([1]; 40 nM, 1 hr): 53 fold
- uptake in presence of mannan (mannan inhibition) ([1]; 40 nM, 1 hr, cells pre-incubated 1 hr and co-incubated with mannan 10 mg/mL): 7.5 ± 4.7 pmol/µg
- hydrodynamic radius (DLS) [2]: 90.6 nm
- viability at 2 h, 0.04 µM [3]: 96.4 ± 7.81%
- intracellular green fluorescence (5-FAM), confocal microscopy [4]: prominent only in G3.0-Mannose treated cells
